Measurements from patent US9951063B2, “8-(piperazin-1-yl)-1,2,3,4-tetrahydro-isoquinoline derivatives” (IDORSIA PHARMACEUTICALS LTD, priority 2014, dated 2018).

Biological target: human CXCR3A (Homo sapiens (Human), UniProt P49682)
Test: FLIPR assay (inhibition of CXCL10-induced calcium signal)
Type: cell-based
Conditions: engineered CHO-K1 cells expressing human CXCR3A coupled to Galpha(16); Fluo-4-AM; CXCL10 agonist 20 nM; mean values where determined several times
Description: The bioactivity of compounds is tested in a fluorometric imaging plate reader (FLIPR: Molecular Devices) using engineered CHO-K1 cells expressing the human CXCR3A (GenBank: AY242128) coupled to a G protein (Galpha(16)). Cells are plated the day prior to bioassay in F12 medium supplemented with 10% FBS and G418 and hygromycin antibiotics to maintain recombinant selection. At the day of bioassay, cells are washed and dye loaded for one hour with Fluo-4-AM (Invitrogen) in Hanks Balanced Salt Solution (Invitrogen), buffered with 20 mM Hepes at pH 7.4 and sodium bicarbonate (0.038%), containing 5 mM probenecid. This buffer, but lacking the dye and containing probenecid at a concentration of 2.5 mM, is also used for washing steps (wash buffer); or lacking both dye and probenecid but supplemented with 0.1% BSA for compound dilution steps (dilution buffer). Cells are washed free of excess dye and 60 microliter of wash buffer is added. Stock solutions of test compounds are made up at a concentration of 10 mM in DMSO, and serially diluted in dilution buffer to concentrations required for inhibition dose response curves. After a 10 minute incubation period at 37° C., 10 microliters of each compound dilution are transferred from a compound plate to the plate containing the recombinant cells in the FLIPR instrument according to the manufacturer's instructions. Following basal readings, 10 microliter CXCL10 agonist at a concentration of 20 nM (from Peprotech) is added, again using the FLIPR instrument. Changes in fluorescence are monitored before and after addition of the test compounds. Emission peak values above base level after CXCL10 addition are exported after base line subtraction.
The calculated IC50 values may fluctuate depending on the daily assay performance. Fluctuations of this kind are known to those skilled in the art. In the case where IC50 values have been determined several times for the same compound, mean values are given.

Chain of human CXCR3A (P49682 whole entry): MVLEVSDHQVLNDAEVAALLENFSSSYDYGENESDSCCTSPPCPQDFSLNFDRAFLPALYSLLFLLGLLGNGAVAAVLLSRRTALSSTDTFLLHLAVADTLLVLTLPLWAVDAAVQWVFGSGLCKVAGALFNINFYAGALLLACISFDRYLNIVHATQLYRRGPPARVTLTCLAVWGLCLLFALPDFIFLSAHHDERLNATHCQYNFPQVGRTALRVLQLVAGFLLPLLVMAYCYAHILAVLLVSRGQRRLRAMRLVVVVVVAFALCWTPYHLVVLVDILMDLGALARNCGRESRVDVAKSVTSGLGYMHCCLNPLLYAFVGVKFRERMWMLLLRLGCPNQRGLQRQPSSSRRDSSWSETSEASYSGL

Compound | IC50 [nM]
C[C@@H]1CN(c2ccc(C(F)(F)F)c3c2CN(c2cnc(C4CC4)nc2)CC3)CCN1C(=O)Cn1ncc2cccnc21 [Example 47, 1-{(R)-4-[2-(2-Cyclopropyl-pyrimidin-5-yl)-5-trifluoromethyl-1,2,3,4-tetrahydro-isoquinolin-8-yl]-2-methyl-piperazin-1-yl}-2-pyrazolo[3,4-b]pyridin-1-yl-ethanone] | 7.27
Cc1ccn(CC(=O)N2CCN(c3ccc(C(F)(F)F)c4c3CN(c3cnc(C5CC5)nc3)CC4)C[C@H]2C)n1 [Example 48, 1-{(R)-4-[2-(2-Cyclopropyl-pyrimidin-5-yl)-5-trifluoromethyl-1,2,3,4-tetrahydro-isoquinolin-8-yl]-2-methyl-piperazin-1-yl}-2-(3-methyl-pyrazol-1-yl)-ethanone] | 1.4
Cc1ccnn1CC(=O)N1CCN(c2ccc(C(F)(F)F)c3c2CN(c2cnc(C4CC4)nc2)CC3)C[C@H]1C [Example 49, 1-{(R)-4-[2-(2-Cyclopropyl-pyrimidin-5-yl)-5-trifluoromethyl-1,2,3,4-tetrahydro-isoquinolin-8-yl]-2-methyl-piperazin-1-yl}-2-(5-methyl-pyrazol-1-yl)-ethanone] | 3.56
Cc1nc(C)n(CC(=O)N2CCN(c3ccc(C(F)(F)F)c4c3CN(c3cnc(N(C)C)nc3)CC4)C[C@H]2C)n1 [Example 50, 1-{(R)-4-[2-(2-Dimethylamino-pyrimidin-5-yl)-5-trifluoromethyl-1,2,3,4-tetrahydro-isoquinolin-8-yl]-2-methyl-piperazin-1-yl}-2-(3,5-dimethyl-[1,2,4]triazol-1-yl)-ethanone] | 2.26
Cc1ccn(CC(=O)N2CCN(c3ccc(C(F)(F)F)c4c3CN(c3cnc(N(C)C)nc3)CC4)C[C@H]2C)n1 [Example 51, 1-{(R)-4-[2-(2-Dimethylamino-pyrimidin-5-yl)-5-trifluoromethyl-1,2,3,4-tetrahydro-isoquinolin-8-yl]-2-methyl-piperazin-1-yl}-2-(3-methyl-pyrazol-1-yl)-ethanone] | 4.93
Cc1ccnn1CC(=O)N1CCN(c2ccc(C(F)(F)F)c3c2CN(c2cnc(N(C)C)nc2)CC3)C[C@H]1C [Example 52, 1-{(R)-4-[2-(2-Dimethylamino-pyrimidin-5-yl)-5-trifluoromethyl-1,2,3,4-tetrahydro-isoquinolin-8-yl]-2-methyl-piperazin-1-yl}-2-(5-methyl-pyrazol-1-yl)-ethanone] | 4.1

Results, then the compound that gave them:

IC50 [nM] | Compound
6.15 | C[C@@H]1CN(c2ccc(C(F)(F)F)c3c2CN(c2cnc(N(C)C)nc2)CC3)CCN1C(=O)Cn1ncc2cccnc21 [Example 53, 1-{(R)-4-[2-(2-Dimethylamino-pyrimidin-5-yl)-5-trifluoromethyl-1,2,3,4-tetrahydro-isoquinolin-8-yl]-2-methyl-piperazin-1-yl}-2-pyrazolo[3,4-b]pyridin-1-yl-ethanone]
6.22 | CCOc1ncc(N2CCc3c(C(F)(F)F)ccc(N4CCN(C(=O)Cn5nc(C)nc5C)[C@H](C)C4)c3C2)cn1 [Example 54, 2-(3,5-Dimethyl-[1,2,4]triazol-1-yl)-1-{(R)-4-[2-(2-ethoxy-pyrimidin-5-yl)-5-trifluoromethyl-1,2,3,4-tetrahydro-isoquinolin-8-yl]-2-methyl-piperazin-1-yl}-ethanone]
10 | CCOc1ncc(N2CCc3c(C(F)(F)F)ccc(N4CCN(C(=O)Cn5nc(C)cc5C)[C@H](C)C4)c3C2)cn1 [Example 55, 2-(3,5-Dimethyl-pyrazol-1-yl)-1-{(R)-4-[2-(2-ethoxy-pyrimidin-5-yl)-5-trifluoromethyl-1,2,3,4-tetrahydro-isoquinolin-8-yl]-2-methyl-piperazin-1-yl}-ethanone]
8.14 | Cc1cc(C)n(CC(=O)N2CCN(c3ccc(C(F)(F)F)c4c3CN(c3ncc(-c5ccccc5)o3)CC4)C[C@H]2C)n1 [Example 56, 2-(3,5-Dimethyl-pyrazol-1-yl)-1-{(R)-2-methyl-4-[2-(5-phenyl-oxazol-2-yl)-5-trifluoromethyl-1,2,3,4-tetrahydro-isoquinolin-8-yl]-piperazin-1-yl}-ethanone]
